Results taken from paper PMC8854719, “Phase 1A/1B dose-escalation and -expansion study to evaluate the safety, pharmacokinetics, food effects and antitumor activity of pamiparib in advanced solid tumours” (British Journal of Cancer, 2021).

Tested on: advanced solid tumours
Test: Tumour response and PFS per RECIST v1.1, overall efficacy-evaluable population
Format: in vivo, human
Protocol: Pamiparib in plasma was measured using a validated liquid chromatography-tandem–mass spectrometry assay with a lower limit of quantification of 1.0 ng/mL. The collection schedule for blood samples used to assess the PK profile is presented in the Supplemental Appendix. Summary PK parameters, including area under the concentration-time curve from time 0 to 9 h (AUC0-9) or infinity (AUC0-inf), maximal plasma concentration (Cmax) and time to maximal plasma concentration (Tmax), were estimated. The pharmacodynamic (PD) activity of pamiparib was explored through the evaluation of poly(ADP-ribose [PAR]) formation in peripheral blood mononuclear cells (PBMCs) after pamiparib administration. The schedule for blood sample collection (PK and PBMCs) and additional assessment information for PAR levels in PBMCs and pharmacodynamic activity is presented in the Supplemental Appendix. Antitumor activity was assessed by radiographic imaging (computed tomography or magnetic resonance imaging) during screening, within 28 days of first pamiparib dose, every 6 weeks in the first 12 months and every 9 weeks thereafter.
Tumour response was evaluated by RECIST v1.1. For patients with ovarian cancer, tumour response was assessed per RECIST v1.1 and by Gynecologic Cancer Intergroup (GCIG) CA-125 criteria. Tumour response for patients with prostate cancer was assessed by Prostate Cancer Clinical Trials Working Group 2 (PCWG2) criteria. Objective response rate (ORR) was defined as the proportion of patients achieving a confirmed complete response (CR) or partial response (PR) on study treatment. Blood tumour antigens (e.g., carcinoembryonic antigen for colorectal cancer, CA-125 for ovarian cancer and prostate-specific antigen [PSA] for mCRPC) were assessed during screening, every 6 weeks after the first pamiparib dose in the first 12 months, and every 9 weeks thereafter.
The safety population comprised all patients in the dose-escalation and dose-expansion phases who received at least one dose of pamiparib (Supplementary Table S2). Patients in the safety analysis set for whom valid pamiparib PK parameters were estimated and for whom evaluable PD results were available represented the PK population and the PD population, respectively. The efficacy-evaluable population included patients in the safety analysis set who had at least one evaluable postbaseline tumour assessment or those who discontinued due to clinical disease progression or early death before tumour assessment could be performed. The EOC efficacy-evaluable population was a subset of the overall efficacy-evaluable population that included patients with EOC from both the dose-escalation and dose-expansion phases. Patients in the dose-expansion phase without measurable disease at baseline per RECIST v1.1 were excluded from the efficacy-evaluable population.
Descriptive statistics were used to summarise all study data (see Supplemental Appendix). Progression-free survival (PFS) and event-free rates were estimated using the Kaplan–Meier method along with the corresponding 95% CI. Pharmacokinetic parameters were derived using standard non-compartmental methods with Phoenix WinNonlin Version 6.4 or higher (Pharsight Corp., Mountain View, California).

[1] = BID efficacy-evaluable population (n = 77)
[2] = Total BID dosage group, overall efficacy-evaluable (n = 77)
[3] = dose escalation, 2.5 mg BID (n=4)
[4] = dose escalation, 5.0 mg BID (n=3)
[5] = dose escalation, 10 mg BID (n=3)

Question: Which results are given for `C[C@]12CCCN1CC1=NNC(=O)c3cc(F)cc4[nH]c2c1c34` [pamiparib]?
Answer: Median duration of response (BID dosage group): 14.9 months; Confirmed CRs [1]: 5.2%; Confirmed PRs [1]: 22.1%; Confirmed CRs (in words) (QD dosage group (n=18)): no confirmed CRs; Confirmed ORR (QD dosage group (n=18)): 11.1%; Confirmed PRs (QD dosage group (n=18)): 11.1%; Event-free rate, 1 year (Total (N=95)): 32.7 (21.73-44.18) % (95% CI); Event-free rate, 2 years (Total (N=95)): 11.0 (4.13-21.80) % (95% CI); PFS censored: New anticancer therapy received before event (Total (N=95)): 1 (1.1) n (%); PFS censored: No disease progression or death (Total (N=95)): 27 (28.4) n (%); PFS censored: No postbaseline assessment (Total (N=95)): 5 (5.3) n (%); PFS censored: ≥2 consecutive missed assessments (Total (N=95)): 2 (2.1) n (%); PFS events: Death (Total (N=95)): 10 (10.5) n (%); PFS events: Disease progression (Total (N=95)): 50 (52.6) n (%); PFS: Censored (Total (N=95)): 35 (36.8) n (%); PFS: Events (Total (N=95)): 60 (63.2) n (%); Progression-Free Survival, Median (Total (N=95)): 5.5 (4.14-8.31) months (95% CI); Event-free rate, 1 year (Total BID Dosage Group (n=77)): 34.0 (21.72-46.58) % (95% CI); Event-free rate, 2 years (Total BID Dosage Group (n=77)): 12.2 (4.52-24.01) % (95% CI); PFS censored: New anticancer therapy received before event (Total BID Dosage Group (n=77)): 1 (1.3) n (%); PFS censored: No disease progression or death (Total BID Dosage Group (n=77)): 20 (26.0) n (%); PFS censored: No postbaseline assessment (Total BID Dosage Group (n=77)): 5 (6.5) n (%); PFS censored: ≥2 consecutive missed assessments (Total BID Dosage Group (n=77)): 2 (2.6) n (%); PFS events: Death (Total BID Dosage Group (n=77)): 7 (9.1) n (%); PFS events: Disease progression (Total BID Dosage Group (n=77)): 42 (54.5) n (%); PFS: Censored (Total BID Dosage Group (n=77)): 28 (36.4) n (%); PFS: Events (Total BID Dosage Group (n=77)): 49 (63.6) n (%); Progression-Free Survival, Median (Total BID Dosage Group (n=77)): 6.9 (4.14-9.89) months (95% CI); Best overall response: Complete response [2]: 4 (5.2) n (%); Best overall response: Not assessed [2]: 7 (9.1) n (%); Best overall response: Not evaluable [2]: 1 (1.3) n (%); Best overall response: Partial response [2]: 17 (22.1) n (%); Best overall response: Progressive disease [2]: 11 (14.3) n (%); Best overall response: Stable disease [2]: 37 (48.1) n (%); Clinical benefit rate [2]: 39.0 (28.1–50.8) % (95% CI); Disease control rate [2]: 75.3 (64.2–84.4) % (95% CI); Objective response rate [2]: 27.3 (17.7–38.6) % (95% CI); Event-free rate, 1 year (Total QD Dosage Group (n=18)): 30.1 (8.73-55.34) % (95% CI); Event-free rate, 2 years (Total QD Dosage Group (n=18)): 0.0 (NE-NE) % (95% CI); PFS censored: New anticancer therapy received before event (Total QD Dosage Group (n=18)): 0 (0) n (%); PFS censored: No disease progression or death (Total QD Dosage Group (n=18)): 7 (38.9) n (%); PFS censored: No postbaseline assessment (Total QD Dosage Group (n=18)): 0 (0) n (%); PFS censored: ≥2 consecutive missed assessments (Total QD Dosage Group (n=18)): 0 (0) n (%); PFS events: Death (Total QD Dosage Group (n=18)): 3 (16.7) n (%); PFS events: Disease progression (Total QD Dosage Group (n=18)): 8 (44.4) n (%); PFS: Censored (Total QD Dosage Group (n=18)): 7 (38.9) n (%); PFS: Events (Total QD Dosage Group (n=18)): 11 (61.1) n (%); Progression-Free Survival, Median (Total QD Dosage Group (n=18)): 4.9 (3.22-12.32) months (95% CI); Best overall response: Complete response [3]: 0 (0.0) n (%); Best overall response: Not assessed [3]: 2 (50.0) n (%); Best overall response: Not evaluable [3]: 0 (0.0) n (%); Best overall response: Partial response [3]: 1 (25.0) n (%); Best overall response: Progressive disease [3]: 1 (25.0) n (%); Best overall response: Stable disease [3]: 0 (0.0) n (%); Clinical benefit rate [3]: 25.0 (0.63-80.59) % (95% CI); Disease control rate [3]: 25.0 (0.63-80.59) % (95% CI); Objective response rate [3]: 25.0 (0.63-80.59) % (95% CI); Best overall response: Complete response [4]: 0 (0.0) n (%); Best overall response: Not assessed [4]: 1 (33.3) n (%); Best overall response: Not evaluable [4]: 0 (0.0) n (%); Best overall response: Partial response [4]: 1 (33.3) n (%); Best overall response: Progressive disease [4]: 0 (0.0) n (%); Best overall response: Stable disease [4]: 1 (33.3) n (%); Clinical benefit rate [4]: 33.3 (0.84-90.57) % (95% CI); Objective response rate [4]: 33.3 (0.84-90.57) % (95% CI); Best overall response: Complete response [5]: 0 (0.0) n (%); Best overall response: Not assessed [5]: 0 (0.0) n (%)
